According to the supplement of paper PMC11061612:

What was measured:
Assay in all cases: combination Emax (second highest fraction inhibited in the dose matrix, 72 h); higher = more inhibition; extreme values may be limits of the assay
[1] = system: BT-20 (Breast Carcinoma)
Method in brief: (§1)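 Cell lines in DMEM/F12 or RPMI with 10% FBS were plated in 1536-well plates, held 24 hours at 37°C, 5% CO2, then given two-drug dose matrices for 72 hours (DMSO typically 0.2%). Viability was read by CellTiter-Glo 2.0 luminescence and scaled as inhibition from 0 (vehicle wells) to 1 (blank wells). Combination Emax is the second-highest inhibition in the matrix; Bliss excess is observed combination effect minus expected EA + EB − EA·EB, EA and EB being single-agent effects.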

[2] = system: PF-382 (T-Lymphoblastic Leukemia)
Method in brief: as §1

[3] = system: KINGS-1 (Low Grade Glioma)
Method in brief: as §1

[4] = system: NCI-H2347 (Lung Adenocarcinoma)
Method in brief: as §1

[5] = system: GI-1 (Glioblastoma)
Method in brief: as §1

[6] = system: SCC-9 (Oral Cavity Carcinoma)
Method in brief: as §1

[7] = system: NH-12 (Neuroblastoma)
Method in brief: as §1

[8] = system: RPMI-7951 (Melanoma)
Method in brief: as §1

[9] = system: EBC-1 (Squamous Cell Lung Carcinoma)
Method in brief: as §1

[10] = system: KP-2 (Pancreatic Carcinoma)
Method in brief: as §1

[11] = system: BV-173 (Chronic Myelogenous Leukemia)
Method in brief: as §1

[12] = system: H-EMC-SS (Chondrosarcoma)
Method in brief: as §1

[13] = system: A704 (Kidney Carcinoma)
Method in brief: as §1

[14] = system: NCI-N87 (Gastric Carcinoma)
Method in brief: as §1

[15] = system: SCC-3 (B-Cell Non-Hodgkin's Lymphoma)
Method in brief: as §1

[16] = system: ASH-3 (Thyroid Gland Carcinoma)
Method in brief: as §1

[17] = system: SNU-C1 (Colorectal Carcinoma)
Method in brief: as §1

[18] = system: HSC-2 (Oral Cavity Carcinoma)
Method in brief: as §1

[19] = system: KU-19-19 (Bladder Carcinoma)
Method in brief: as §1

[20] = system: KLE (Endometrial Carcinoma)
Method in brief: as §1

Compound	combination Emax [1]	combination Emax [2]	combination Emax [3]	combination Emax [4]	combination Emax [5]	combination Emax [6]	combination Emax [7]	combination Emax [8]	combination Emax [9]	combination Emax [10]	combination Emax [11]	combination Emax [12]	combination Emax [13]	combination Emax [14]	combination Emax [15]	combination Emax [16]	combination Emax [17]	combination Emax [18]	combination Emax [19]	combination Emax [20]
Cc1cc2ncnn2cc1Nc1ncc2c(n1)n(C1CCOCC1)c(=O)n2C [AZD7648] + O=C(c1cc(Cc2n[nH]c(=O)c3ccccc23)ccc1F)N1CCN(C(=O)C2CC2)CC1 [Olaparib] (first compound max 10 µM, 7x7, partner max 10 µM)	0.313	0.49	0.189	0.224	0.261	0.0663	0.317	0.303	0.202	0.12	0.897	0.321	0.226	0.301	0.435	0.321	0.158	0.228	0.251	0.419
CC1(C)CCC(CN2CCN(c3ccc(C(=O)NS(=O)(=O)c4ccc(NCC5CCOCC5)c([N+](=O)[O-])c4)c(Oc4cnc5[nH]ccc5c4)c3)CC2)=C(c2ccc(Cl)cc2)C1 [Venetoclax] + COc1cc(Nc2ncc3c(n2)-c2ccc(Cl)cc2C(c2c(F)cccc2OC)=NC3)ccc1C(=O)O [Alisertib] (first compound max 1 µM, 7x7, partner max 10 µM)	0.499	0.905	0.379	0.18	0.506	0.274	0.977	0.683	0.436	0.267	0.971	0.658	0.758	0.335	0.893	0.476	0.251	0.732	0.462	0.635
C=CCn1c(=O)c2cnc(Nc3ccc(N4CCN(C)CC4)cc3)nc2n1-c1cccc(C(C)(C)O)n1 [AZD1775] + O=C(c1cc(Cc2n[nH]c(=O)c3ccccc23)ccc1F)N1CCN(C(=O)C2CC2)CC1 [Olaparib] (first compound max 1 µM, partner max 10 µM)	0.518	0.976	0.381	0.35	0.917	0.265	0.906	0.766	0.272	0.225	0.96	0.333	0.462	0.711	0.968	0.262	0.313	0.63	0.804	0.456
CN(CCO)CC[C@H](CSc1ccccc1)Nc1ccc(S(=O)(=O)NC(=O)c2ccc(N3CCC([C@@H](O)c4ccccc4-c4ccc(Cl)cc4)CC3)cc2)cc1S(=O)(=O)C(F)(F)F [AZD4320] + CCN(CCO)CCCOc1ccc2c(Nc3cc(CC(=O)Nc4cccc(F)c4)[nH]n3)ncnc2c1 [AZD2811] (first compound max 1 µM, 7x7, partner max 1 µM)	0.653	1	0.498	0.476	0.771	0.333	0.962	0.647	0.931	0.921	0.965	0.521	0.563	0.571	0.316	0.619	0.531	0.827	0.498	0.297
Cc1c2c(nn1C)CSCc1cc(n(C)n1)CSc1cc(c3ccccc3c1)OCCCc1c(C(=O)O)n(C)c3c-2c(Cl)ccc13 [AZD5991] + C1CN(CCC1(C(=O)N[C@@H](CCO)C2=CC=C(C=C2)Cl)N)C3=NC=NC4=C3C=CN4 [Capivasertib] (first compound max 1 µM, 7x7, partner max 3 µM)	0.867	0.477	0.242	0.134	0.949	0.231	0.32	0.986	0.287	0.18	0.927	0.647	0.306	0.422	0.487	0.267	0.576	0.976	0.174	0.267
CCc1c2c(nc3ccc(O)cc13)-c1cc3c(c(=O)n1C2)COC(=O)[C@]3(O)CC [SN-38] + CN(C)CCCOc1ccc(-c2ccc3ncc4c(c3c2)n(C2CCOCC2)c(=O)n4C)cn1 [AZD0156] (first compound max 0.3 µM, 7x7, partner max 1 µM)	0.81	0.994	0.243	0.564	0.974	0.392	0.838	0.933	0.863	0.404	0.981	0.643	0.504	0.697	1	0.844	0.419	0.965	0.828	0.453
